Values joined by “and” are separate entries in the source; they are usually repeats but may differ in a detail not shown here. Equal entries are not always repeated.
Tests used:
5×FAD mice [1] = test: ThioS Aβ plaque area and plaque morphometry (Supplementary Fig 8b,c); type: in vivo, mouse
Procedure: (§1) Thioflavin S (Sigma-Aldrich) staining was carried out according to previously described procedures. We used 6E10 (mouse, 1:100, Signet, SIG39300), anti-20G10 (mouse, 1:1000, provided by D. R. Howlett, GlaxoSmithKline, Harlow, Essex, UK) for Aβ42, anti-G30 (rabbit, 1:1000, provided by D. R. Howlett) for Aβ40, SMA (mouse, 1:400, Sigma-Aldrich, A2547), AT8 (mouse, 1:500, Thermo Fisher Scientific, MN1020), Caspase-3 (mouse, 1:200, Novus Biologicals, NB100-56708), ac-S565 (rabbit, 1:100), COX2 (mouse, 1:250, Thermo Fisher Scientific, 35-8200), Iba1 (rabbit, 1:500, Wako, 019-19941 and goat, Abcam, ab5076), NeuN (mouse, 1:500, Millipore, MAB177), GFAP (rabbit, 1:500, Dako, N1506 and chicken, 1:500, Abcam, ab4674), and Lamp1 (mouse, 1:200, Abcam, ab24170). The sections were analyzed with a laser-scanning confocal microscope (FV3000; Olympus) or with a BX51 microscope (Olympus). MetaMorph software (Molecular Devices) was used to quantification. Three-dimensional reconstruction of microglia was recorded and analyzed using IMARIS software (Bitplane)[11]. For the analysis of age-dependent microglial COX2^+ CX3CR1^+ cells in WT and APP/PS1 mice, COX2 (rabbit, 1:100, Abcam, ab15191) and CX3CR1 (mouse, 1:100, BioLegend, 149008) antibody were used and the images were acquired on Alexa 488 and APC Channel with performed using Operetta CLS and Analysis Software 4.5 (Perkin-Elmer).
Transgenic mouse lines over-expressing the hAPP695swe (APP) and presenilin-1M146V (PS1) mutations were originated from GlaxoSmithKline (Harlow, UK)[32] and maintained as described previously. We purchased 5×FAD mice from Jackson Labs (Stock number. 34840-JAX). Because APP/PS1 and 5xFAD mice show sex differences in disease progression, we used only male mice. To examine possible therapeutic effect of N-AS and aspirin in APP/PS1 mice, the N-AS (30 mg kg^−1, Sigma-Aldrich, 01912) was injected daily s.c. for 8 weeks to 7-months-old APP/PS1 mice until the age of 9 months, and aspirin (2 mg kg^−1, Sigma-Aldrich, A5376)[33] was administrated orally to 7-months-old APP/PS1 mice for 8 weeks. Also, to confirm possible therapeutic efficacy of N-AS in 5×FAD, the N-AS (30 mg kg^−1, Sigma-Aldrich, 01912) was injected daily s.c. for 4 weeks to 3-months-old 5×FAD mice until the age of 4 months. Block randomization method was used to allocate the animals to experimental groups. To eliminate the bias, we were blinded in experimental progress such as data collection and data analysis. Mice were housed at temperature of 22 °C and a 12 h day/12 h night cycle with free access to tap water and food pellets. All protocols were approved by the Kyungpook National University Institutional Animal Care and Use Committee.

5×FAD mice [2] = test: Iba1+ microglia and GFAP+ astrocyte quantification (Supplementary Fig 8d,e); type: in vivo, mouse
Procedure: as §1, with “(Perkin-Elmer). […]” for “(Perkin-Elmer).”

COX2 = biological target: T1, COX2 (Homo sapiens, UniProt P35354); test: S565 acetylation of recombinant COX2 (ac-S565 western blot, LC-MS/MS of acetylated site); type: biochemical; design: purchased LSBio LS-G21094; conditions: 2 mM; vs naive and aspirin-treated COX2
T1 sequence (P35354 18-604): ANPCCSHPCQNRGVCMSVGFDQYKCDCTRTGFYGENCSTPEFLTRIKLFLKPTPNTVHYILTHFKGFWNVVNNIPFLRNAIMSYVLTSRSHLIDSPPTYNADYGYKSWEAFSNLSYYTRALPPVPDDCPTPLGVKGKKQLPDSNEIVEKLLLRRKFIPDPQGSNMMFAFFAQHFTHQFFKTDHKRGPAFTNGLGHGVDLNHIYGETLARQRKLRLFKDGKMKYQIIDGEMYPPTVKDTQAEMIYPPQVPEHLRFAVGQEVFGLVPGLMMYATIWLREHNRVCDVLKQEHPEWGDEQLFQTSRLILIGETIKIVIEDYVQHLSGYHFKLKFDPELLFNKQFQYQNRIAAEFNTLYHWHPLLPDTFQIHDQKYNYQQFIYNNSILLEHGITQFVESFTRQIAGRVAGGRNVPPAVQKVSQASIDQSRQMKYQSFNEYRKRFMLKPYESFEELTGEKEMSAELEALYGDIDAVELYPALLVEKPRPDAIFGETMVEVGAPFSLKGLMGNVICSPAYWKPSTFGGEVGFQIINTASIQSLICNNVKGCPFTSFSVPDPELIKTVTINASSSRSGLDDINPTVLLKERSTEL
Procedure: To identify the acetylation site of COX2, N-AS (Sigma-Aldrich, 01912)-treated COX2 enzymes (LSBio, LS-G21094) were immediately precipitated with trichroloacetic acid (Merck) and dried. The dried extract was resuspended in 10 μl of 5 M Urea solution and incubated with 1 μg sequencing-grade modified porcine trypsin (Promega) in 0.1 M ammonium bicarbonate buffer at 37 °C for 16 h. The sample was then treated with 1 M DTT (GE Healthcare) at RT for 1 h, followed by alkylation with 1 M iodoacetamide (Sigma-Aldrich) for 1 h. For sequencing, the protein samples were loaded onto a ZORBAX 300SB-C18 column (3.5 μm, 1.0 mm i.d. × 150 mm, Agilent). The column was placed in-line with an UltiMate 3000 system (Dionex, USA) and a splitter system was used to achieve a flow rate of 100 μl min^−1. Analytes were eluted with a mobile phase consisting of water: formic acid (100:0.2 v/v) (phase A) and acetonitrile: formic acid (100:0.2 v/v) (phase B) in gradient elution mode for 77 min. […]
Samples were lysed in RIPA buffer (Cell signaling Technologies), then subjected to SDS-PAGE and transferred to a nitrocellulose membrane. […] We performed densitometric quantification using the ImageJ software (National Institutes of Health). […]

[3] = 5×FAD, N-AS 30 mg kg^-1 daily s.c. 4 weeks

CCCCCCCCCCCCC/C=C/[C@@H](O)[C@H](CO)NC(C)=O [N-AS, N-((2S,3R,E)-1,3-Dihydroxyoctadec-4-en-2-yl)acetamide]
Aβ plaques by size, <25mM (5×FAD mice [1]; 5xFAD + N-AS, sFig 8c): 92.2364 and 92.245 and 94.982 and 89.4908 and 95.585 and 93.6135 | Aβ plaques by size, >50mM (5×FAD mice [1]; 5xFAD + N-AS, sFig 8c): 5.395 and 4.6761 and 5.546 and 5.244 and 3.581 and 5.111 | Aβ plaques by size, 25-50mM (5×FAD mice [1]; 5xFAD + N-AS, sFig 8c, in % (unit assumed)): 5.341 and 4.808 and 4.956 and 5.7255 and 3.9859 and 4.882 | Aβ plaque deposit and Aβ plaque phagocytosis (5×FAD mice [1]; [3]): similarly improved AD pathology of 5×FAD mice | GFAP+ astrocyte (5×FAD mice [2]; 5xFAD+N-AS, sFig 8e (sheet untitled)): 1.617 and 1.112 and 1.516 and 1.497 and 1.364 and 1.314 | neuroinflammation (5×FAD mice [2]; [3]): similarly improved AD pathology of 5×FAD mice | ac-S565 signal in western blot of recombinant COX2 (COX2): strong ac-S565-positive signals
